Experimental data published in patent publication US20040023972A1, “Use of substituted imidazo[1,2-a]-pyridin-, -pyrimidin-and-pyrazin-3-yl-amine derivatives in the preparation of medicaments for inhibiting NOS” (Gruenenthal GmbH, priority 2000, published 2004).

biological target: T1, NO synthase (Rattus norvegicus, UniProt P29476); assay: HTS-NOS assay (NOS assay): conversion of radioactive arginine, cation-exchanger filter plate; assay type: biochemical; conditions: 10 μM
T1 construct: the supernatant was then removed by decantation and frozen in portions at −80° C; from tissue; host or cells: rat cerebellum, 20,000 g supernatant of homogenate
Method in brief: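 Rat cerebellum supernatant as NOS source, incubated with radiolabelled arginine plus cofactors including NADPH at 25 °C for 5-60 min depending on enzyme activity. Unconverted arginine was trapped on a cation-exchange filter plate, citrulline washed out, and bound arginine counted by scintillation; % inhibition versus no-compound reactions.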

| SMILES | HTS-NOS assay: % inhibition (10 μM) |
| --- | --- |
| C#[N+]CCCCCCNc1c(-c2cccc3ccccc23)nc2cc(C)ccn12 [Example 122, Methylidyne-[6-(7-methyl-2-naphthalen-1-yl-imidazo[1,2-a]pyridin-3-ylamino)-hexyl]-ammonium] | 53% |
| C#[N+]CCCCCCNc1c(-c2cccc3ccccc23)nc2cc(C)cc(C)n12 [Example 128, [6-(5,7-Dimethyl-2-naphthalen-1-yl-imidazo[1,2-a]pyridin-3-ylamino)-hexyl]-methylidyne-ammonium] | 63% |
| [C-]#[N+]CCCCCCNc1c(-c2cccc(O)c2)nc2c(C)cccn12 [Example 131, {6-[2-(3-Hydroxy-phenyl)-8-methyl-imidazo[1,2-a]pyridin-3-ylamino]-hexyl}-methylidyne-ammonium] | 55% |
| [C-]#[N+]CCCCCCNc1c(-c2ccccc2Br)nc2cc(C)ccn12 [Example 137, {6-[2-(2-Bromo-phenyl)-7-methyl-imidazo[1,2-a]pyridin-3-ylamino]-hexyl}-methylidyne-ammonium] | 52% |
| CC(=O)OCc1ccc(-c2nc3cc(C)cc(C)n3c2N(C(C)=O)C2CCCCC2)o1 [Example 158, acetic acid 5-[3-(acetyl-cyclohexyl-amino)-5,7-dimethyl-imidazo[1,2-a]pyridin-2-yl]-furan-2-yl methyl ester] | 54% |
| [C-]#[N+]CCCCCCN(C(C)=O)c1c(-c2ccco2)nc2cc(C)cc(C)n12 [Example 159, {6-[acetyl-(2-furan-2-yl-5,7-dimethyl-imidazo[1,2-a]pyridin-3-yl)-amino]-hexyl}-methylidyne-ammonium] | 61% |

same assay, conditions: read-out: HTS-NOS assay: % inhibition (10 μM)

| SMILES | inhibition at 10 µM |
| --- | --- |
| Cc1cccn2c(NC(C)(C)C)c(C3CCCCC3)nc12 [Example 123, Tert-butyl-(2-cyclohexyl-8-methyl-imidazo[1,2-a]pyridin-3-yl)-amine] | 53% |
| Cc1ccc2nc(-c3ccncc3)c(NC(C)(C)CC(C)(C)C)n2c1 [Example 124, (6-Methyl-2-pyridin-4-yl-imidazo[1,2-a]-pyridin-3-yl)-(1,1,3,3-tetramethyl-butyl)-amine] | 68% |
| Cc1ccc2nc(-c3cccnc3)c(NC(C)(C)C)n2c1 [Example 125, Tert-butyl-(6-methyl-2-pyridin-3-yl-imidazo[1,2-a]pyridin-3-yl)-amine] | 51% |
| Cc1ccn2c(NC(C)(C)CC(C)(C)C)c(-c3cccnc3)nc2n1 [Example 126, (7-Methyl-2-pyridin-3-yl-imidazo[1,2-a]-pyrimidin-3-yl)-(1,1,3,3-tetramethyl-butyl)-amine] | 50% |
| Cc1ccc2nc(-c3ccc(C(=O)O)s3)c(NC(C)(C)C)n2c1 [Example 127, 5-(3-Tert-butylamino-6-methyl-imidazo[1,2-a]pyridin-2-yl)-thiophene-2-carboxylic acid] | 52% |
| Cc1ccccc1-c1nc2c(C)cccn2c1Nc1c(C)cccc1C [Example 130, (2,6-Dimethyl-phenyl)-(8-methyl-2-o-tolyl-imidazo[1,2-a]pyridin-3-yl)-amine] | 58% |
| Cc1ccn2c(Nc3c(C)cccc3C)c(-c3ccc(CO)o3)nc2n1 [Example 132, {5-[3-(2,6-Dimethyl-phenylamino)-7-methyl-imidazo[1,2-a]pyrimidin-2-yl]-furan-2-yl}-methanol] | 52% |
| Cc1ccc(-c2nc3c(C)cccn3c2NC(C)(C)CC(C)(C)C)cc1 [Example 133, (8-Methyl-2-p-tolyl-imidazo[1,2-a]pyridin-3-yl)-(1,1,3,3-tetramethyl-butyl)-amine] | 52% |
| CCCCNc1c(-c2ccc(Cl)cc2Cl)nc2ccc(C)cn12 [Example 135, Butyl-[2-(2,4-dichloro-phenyl)-6-methyl-imidazo[1,2-a]pyridin-3-yl]-amine] | 50% |
| CCCCNc1c(-c2ccc(N(C)C)c3ccccc23)nc2cnccn12 [Example 136, Butyl-[2-(4-dimethylamino-naphthalen-1-yl)-imidazo[1,2-a]pyrazin-3-yl]-amine] | 56% |
| CCCCNc1c(-c2ccccc2OC)nc2ccc(C)cn12 [Example 138, Butyl-[2-(2-methoxy-phenyl)-6-methyl-imidazo[1,2-a]pyridin-3-yl]-amine] | 52% |
| Cc1cccn2c(NC(C)(C)CC(C)(C)C)c(C3CCCCC3)nc12 [Example 139, (2-Cyclohexyl-8-methyl-imidazo[1,2-a]-pyridin-3-yl)-(1,1,3,3-tetramethyl-butyl)-amine] | 51% |
| Cc1ccn2c(NC3CCCCC3)c(-c3ccccn3)nc2c1 [Example 140, Cyclohexyl-(7-methyl-2-pyridin-2-yl-imidazo[1,2-a]pyridin-3-yl)-amine] | 55% |
| Cc1ccn2c(NC3CCCCC3)c(-c3ccco3)nc2c1 [Example 141, Cyclohexyl-(2-furan-2-yl-7-methyl-imidazo[1,2-a]pyridin-3-yl)-amine] | 64% |
| COC(=O)CNc1c(C2CCCCC2)nc2cc(C)cc(C)n12 [Example 142, (2-Cyclohexyl-5,7-dimethyl-imidazo[1,2-a]-pyridin-3-ylamino)-acetic acid methyl ester] | 59% |
| CC(=O)N(c1c(-c2ccco2)nc2cc(C)ccn12)C(C)(C)CC(C)(C)C [Example 149, N-(2-furan-2-yl-7-methyl-imidazo[1,2-a]pyridin-3-yl)-N-(1,1,3,3-tetramethylbutyl)-acetamide] | 55% |
| CC(=O)N(c1c(-c2cccs2)nc2cc(C)ccn12)C1CCCCC1 [Example 151, N-cyclohexyl-N-(7-methyl-2-thiophen-2-yl-imidazo[1,2-a]pyridin-3-yl)-acetamide] | 65% |
| CC(=O)N(c1c(-c2ccc(C(=O)O)s2)nc2cnccn12)C(C)(C)C [Example 153, 5-[3-(acetyl-tert-butyl-amino)-imidazo[1,2-a]pyrazin-2-yl]-thiophene-2-carboxylic acid] | 78% |
| CC(=O)N(c1c(C2CCCCC2)nc2cc(C)cc(C)n12)C(C)(C)C [Example 157, N-tert-butyl-N-(2-cyclohexyl-5,7-dimethyl-imidazo[1,2-a]pyridin-3-yl)-acetamide] | 63% |

Results, then the compound that gave them:

| inhibition at 10 µM | SMILES |
| --- | --- |
| 61% | Cc1cc(C)n2c(Nc3c(C)cccc3C)c(-c3cccc(O)c3)nc2c1 [Example 129, 3-[3-(2,6-Dimethyl-phenylamino)-5,7-dimethyl-imidazo[1,2-a]pyridin-2-yl]-phenol] |
| 56% | Cc1ccc2nc(-c3ccc(Cl)cc3Cl)c(Nc3c(C)cccc3C)n2c1 [Example 134, [2-(2,4-Dichlorophenyl)-6-methyl-imidazo[1,2-a]pyridin-3-yl]-(2,6-dimethyl-phenyl)-amine] |
| 68% | CC(=O)N(c1c(-c2ccco2)nc2cc(C)cc(C)n12)C(C)(C)CC(C)(C)C [Example 143, N-(2-furan-2-yl-5,7-dimethyl-imidazo[1,2-a]pyridin-3-yl)-N-(1,1,3,3-tetramethylbutyl)-acetamide] |
| 59% | CC(=O)N(c1c(-c2cccnc2)nc2cc(C)ccn12)C(C)(C)C [Example 144, N-tert-butyl-N-(7-methyl-2-pyridin-3-yl-imidazo[1,2-a]pyridin-3-yl)-acetamide] |
| 66% | CC(=O)N(c1c(-c2ccco2)nc2cc(C)cc(C)n12)C(C)(C)C [Example 145, N-tert-butyl-N-(2-furan-2-yl-5,7-dimethyl-imidazo[1,2-a]pyridin-3-yl)-acetamide] |
| 59% | CC(=O)N(c1c(-c2ccncc2)nc2cc(C)cc(C)n12)C(C)(C)CC(C)(C)C [Example 146, N-(5,7-dimethyl-2-pyridin-4-yl-imidazo[1,2-a]pyridin-3-yl)-N-(1,1,3,3-tetramethyl-butyl)-acetamide] |
| 68% | CC(=O)N(c1c(-c2cccnc2)nc2cc(C)cc(C)n12)C(C)(C)CC(C)(C)C [Example 147, N-(5,7-dimethyl-2-pyridin-3-yl-imidazo[1,2-a]pyridin-3-yl)-N-(1,1,3,3-tetramethyl-butyl)-acetamide] |
| 57% | CC(=O)N(c1c(C)cccc1C)c1c(-c2ccccc2C)nc2cc(C)cc(C)n12 [Example 148, N-(2,6-dimethyl-phenyl)-N-(5,7-dimethyl-2-o-tolyl-imidazo[1,2-a]pyridin-3-yl)-acetamide] |
| 60% | CC(=O)N(c1c(C)nc2cc(C)cc(C)n12)C(C)(C)CC(C)(C)C [Example 150, N-(1,1,3,3-tetramethyl-butyl)-N-(2,5,7-trimethyl-imidazo[1,2-a]pyridin-3-yl)-acetamide] |
| 66% | CC(=O)N(c1c(C)nc2cc(C)cc(C)n12)C(C)(C)C [Example 152, N-tert-butyl-N-(2,5,7-trimethyl-imidazo[1,2-a]pyridin-3-yl)-acetamide] |
| 60% | CC(=O)N(c1c(-c2ccc(C(=O)O)o2)nc2cc(C)cc(C)n12)C(C)(C)CC(C)(C)C [Example 154, 5-{3-[acetyl-(1,1,3,3-tetramethyl-butyl)-amino]-5,7-dimethyl-imidazo[1,2-a]-pyridin-2-yl}-furan-2-carboxylic acid] |
| 50% | CC(=O)N(c1c(-c2ccc(CO)o2)nc2cc(C)cc(C)n12)C(C)(C)CC(C)(C)C [Example 155, N-[2-(5-hydroxymethyl-furan-2-yl)-5,7-dimethyl-imidazo[1,2-a]pyridin-3-yl]-N-(1,1,3,3-tetramethyl-butyl)-acetamide] |
| 74% | CC(=O)N(c1c(C)cccc1C)c1c(-c2sccc2Br)nc2cc(C)cc(C)n12 [Example 156, N-[2-(3-bromo-thiophen-2-yl)-5,7-dimethyl-imidazo[1,2-a]pyridin-3-yl]-N-(2,6-dimethyl-phenyl)-acetamide] |
| 55% | CC(=O)N(c1c(C)cccc1C)c1c(-c2cccc(Cl)c2Cl)nc2cc(C)ccn12 [Example 160, N-[2-(2,3-dichloro-phenyl)-7-methyl-imidazo[1,2-a]pyridin-3-yl]-N-(2,6-dimethyl-phenyl)-acetamide] |
